Results as given in patent US7550438B2, “Methods for production of growth-promoting proteins and peptides for kidney epithelial cells” (The University of Chicago, priority 1997, dated 2009).

Tests used:
BSC-1 cells [1] = assay: Appearance or release of WGF growth-promoting activity from BSC-1 cells (scrape wounding, heparinase); format: cell-based, African green monkey; settings: for appearance of growth-promoting activity after wounding: cells preincubated 10 minutes with the protease inhibitor
Protocol: None of these agents inhibited cell growth when added to cells of nonwounded cultures. When added to the medium after the appearance of WGF mitogenic activity, neither PMSF nor aprotinin appeared to inhibit the increment in cell proliferation.
Confluent monolayer cultures were mechanically scraped using a 200 μL pipet tip (Continental Laboratory Products, San Diego, Calif.). […] (This process of scraping the cells has been termed “wounding” and has been used for many years as a model system to study repair of corneal abrasions of the eye. In effect, pressure is applied to cells sufficient to disrupt intercellular adhesion). To determine whether kidney epithelial cells released an autocrine growth factor into the medium after wounding, conditioned culture medium was removed from the culture dish after scrape-wounding a monolayer of BSC-1 cells. An aliquot was assayed for any growth-promoting activity on a nonwounded “detector” culture (1.2×10^6 cells per […]).
Treatment of a confluent monolayer of BSC-1 cells with the enzyme heparinase I (Sigma), but not heparinase III (Sigma), releases WGF mitogenic activity from cells into the culture media. However, this seems to deplete WGF, at least temporarily. When cells are first treated with heparinase I, rinsed, the media aspirated, and the monolayer is then scrape-wounded, no growth-promoting activity is detected in the conditioned media.

BSC-1 cells [2] = assay: Time of contact with cells required to commit them to accelerated growth (washout, count at four days); format: cell-based, African green monkey; settings: peptide then washed off, cells counted four days later
Protocol: Confluent monolayers of BSC-1 cells are prepared as herein and exposed to the 14-Ser peptide (0.5 μg/ml) for different amounts of time (0 to 30 minutes). At the end of the defined exposure period, culture medium containing the mitogen was aspirated, the monolayer was rinsed to remove non-adherent peptide, and fresh medium was added. Four days later the number of cells in the culture was counted.
In these experiments a solution containing the peptide of interest was added to the cell monolayer; culture medium was then aspirated at a specified time thereafter. Then fresh medium without the peptide was added and the number of cells was counted four days later.

[3] = system: rats with mercuric chloride-induced acute renal failure; assay: Mercuric chloride-induced acute renal failure in rats: survival and renal function; format: in vivo, rat
From the text: Nephrotoxic and ischemic acute renal failure (ARF) induced experimentally in rats have long been used to model this syndrome in humans. […] Male rats weighed 200-225 gm at the start of the experiment. This dose was used because preliminary experiments indicated it results in survival of 25-50% of the animals 7 days later. […] An increase in serum creatinine concentration signals a decline in renal function because the injured kidney is unable to excrete endogenous creatinine in the urine so it accumulates in the blood.
The synthetic peptide […] (14-Ser) (SEQ ID NO: 15) (dissolved in sterile 0.01% bovine serum albumin in phosphate-buffered saline) was injected subcutaneously into rats to determine its effect on survival, recovery of renal fucntion, and stimulation of DNA synthesis. Multiple different peptides were studied including 14-Ser, […] (14-mer) (SEQ ID NO: 39), […] (16-mer) (SEQ ID NO: 4) […] (11-mer) (SEQ ID NO: 6), and […] (11-mer) (SEQ ID NO: 41). Different concentrations and times of administration were tested and compared.
Acute tubular necrosis was induced in 44 rats by the subcutaneous (s.c.) injection of mercuric chloride, and a single dose of 14-ser was administered s.c. 1 hour afterwards. Different amounts of the peptide were given to assesses its capacity to affect the outcome. Survival 7 days later was about twice as high in animals given 100-150 μg of peptide (63%) than in rats given 0-75 μg peptide (29%).
To determine the effect of the peptide on survival and recovery of renal function, acute tubular necrosis was induced in 59 rats; 29 received 14-Ser (100 μg/rat) and 30 received an equal volume of the vehicle s.c. 1 hour after administration of mercuric chloride. Enhanced survival (top panel) and renal functional recovery (bottom panel) of rats give a WGF-derived peptide after mercuric chloride-induced acute tubular necrosis are shown in FIG. 2A and FIG. 2B. Mercuric chloride was injected subcutaneously into each of the 59 rats, and 1 hour later 100 μg of WGF peptide (14-Ser) (n=29 rats) or the vehicle […] was given. Survival was greater in rats given the peptide than in animals receiving the vehicle as early as day 3 after administration of mercuric chloride. Blood was obtained from the tail vein on the days indicated, and serum creatinine concentration was measured. […] On days 2, 3 and 4, the lower creatinine concentration in peptide-treated rats indicates accelerated recovery of kidney function.
Experimental ARF was induced in rats by subcutaneous injection of mercuric chloride. The synthetic peptide […] […] In one experiment a total of 17 rats were injected with a dose of mercuric chloride shown to induce ARF. The different amounts of the peptide (known to stimulate growth of kidney cells in culture) were injected into the animals to assess capacity to improve the outcome. […] In contrast, two of three rats given 100 micrograms of peptide were alive, as were five of six given 200 micrograms. In summary, none of eight rats (0%) given up to 50 micrograms of peptide survived, whereas seven of nine (78%) given 100-200 micrograms did. Thus, the 11-mer WGF peptide improves survival in nephrotoxic ARF.
[…] Four days later, 63% of rats given the 14-Ser peptide were alive compared to 25% of animals receiving the vehicle (chi squared, P-0.0499); 50% of rats receiving EGF were alive (chi squared, P=N.S.). On day 5, 50% of rats given EGF were alive, compared to 12.5% of animals given the vehicle (chi squared, P=0.0436). […] These observations indicate that the 14-Ser peptide and EGF given after renal injury are similar in their ability to improve survival from the ARF syndrome.

[4] = system: monkey kidney epithelial cells of the BSC-1 line; assay: Growth-promoting (mitogenic) activity: number of cells in BSC-1 cultures counted four days after addition; format: cell-based, African green monkey
Protocol: For the assay, cells were detached from the dish with a solution of trypsin and an aliquot was counted in a hemocytometer.
Nontransformed monkey kidney epithelial cells of the BSC-1 line were grown to confluence in Dulbecco's modified Eagle's medium containing 1% calf serum and […] in 55-mm culture dishes at 38° C. in a CO2 incubator. When cells achieved a density of about 10^6 per dish, the spent medium was removed and replaced with fresh medium containing 0.5% calf serum and the 14-amino acid peptide (0.5 μg/ml). Additions of each of the mitogenic signals at maximal concentration were made to the culture medium. Four days later the number of cells in each culture was counted in a hemocytometer. Values obtained were the mean of 3 separate cultures.
Nontransformed monkey kidney epithelial cells of the BSC-1 line were grown to confluence in Dulbecco's modified Eagle's medium containing 1% calf serum and 1.6 μM biotin at 38° C. in a CO2 incubator. When cells achieved a density of about 10^6 per dish, the spent medium was removed and replaced with fresh medium containing 0.5% calf serum and different amounts of the two peptides. Four days later the number of cells in each culture was counted. Each value is the mean of 3 separate cultures.
To delineate the sequence of the smallest peptide that could stimulate renal cell growth, synthetic peptides of different lengths were prepared (see below), and purified by reversed-phase HPLC on a C18 column.
The peptide of interest was then purified on a reversed-phase C18 column HPLC as described herein using a gradient of 1-80% acetonitrile in 0.1% trifluroacetic acid (TFA). The purified peptide was then lyophilized to remove the acetonitrile and TFA and the lyophilized powder was weighed, dissolved in buffer and added to the culture medium to measure its effect on the growth of monkey kidney epithelial cells as described herein. […] A value termed the K1/2, was used.

O=S(=O)(F)Cc1ccccc1 [PMSF, phenylmethylsulfonyl-fluoride]
appearance of growth-promoting activity after wounding (BSC-1 cells [1]): prevented

Cc1ccc(S(=O)(=O)N[C@@H](CCCCN)C(=O)CCl)cc1.Cl [TLCK, L-1-chloro-3-(4-tosylamido)-7-amino-2-heptanone-hydrochloride]
appearance of growth-promoting activity after wounding (BSC-1 cells [1]): prevented

aprotinin
appearance of growth-promoting activity after wounding (BSC-1 cells [1]): prevented

epidermal growth factor [EGF, reference compound]
exposure time sufficient for maximal growth stimulation (commitment time) (BSC-1 cells [2]): 4 min | survival on day 6 ([3]; 14-Ser 100 μg 1 hour after, EGF 20 μg 2 hours after mercuric chloride, vehicle 12%): 37.5% | survival four days later ([3]; 14-Ser 100 μg s.c. 1 hour after, EGF 20 μg s.c. 2 hours after mercuric chloride 2.25 mg/kg, vehicle 25%): 50% | survival on day 5 ([3]; EGF 20 μg s.c. 2 hours after mercuric chloride, vehicle 12.5%): 50% | survival on day 4 ([3]; given 24 hours before mercuric chloride (EGF 20 μg, s.c.)): 25% | concentration equivalent in mitogenic potency to partially-purified WGF [4]: 0.015 µg/mL | stimulation of growth (increase in cell number compared to control at four days) ([4]; agent alone at maximal mitogenic concentration (14-Ser 0.5 μg/ml; EGF, IGF-I 50 ng/ml; acidic FGF 100 pg/ml; basic FGF 1,000 pg/ml; vasopressin 75 pg/ml; K 10.4 mM; Na 180 mM)): 31% | combined mitogenic effect with WGF (additivity) ([4]; maximal concentrations, 11-mer with wound conditioned buffer): additive | stimulation of growth in the presence of the 14-Ser peptide ([4]; mitogenic signal at maximal concentration plus 14-Ser peptide 0.5 μg/ml, four days): 61%

B1: heparinase I: enzyme heparinase I (Sigma) (protein, UniProt Q05819 22-384, looked up)
Heparin lyase I: QQKKSGNIPYRVNVQADSAKQKAIIDNKWVAVGINKPYALQYDDKLRFNGKPSYRFELKAEDNSLEGYAAGETKGRTELSYSYATTNDFKKFPPSVYQNAQKLKTVYHYGKGICEQGSSRSYTFSVYIPSSFPDNATTIFAQWHGAPSRTLVATPEGEIKTLSIEEFLALYDRMIFKKNIAHDKVEKKDKDGKITYVAGKPNGWKVEQGGYPTLAFGFSKGYFYIKANSDRQWLTDKADRNNANPENSEVMKPYSSEYKTSTIAYKMPFAQFPKDCWITFDVAIDWTKYGKEANTILKPGKLDVMMTYTKNKKPQKAHIVNQQEILIGRNDDDGYYFKFGIYRVGNSTVPVTYNLSGYSETAR
release of WGF mitogenic activity from cells into the culture media (BSC-1 cells [1]; confluent monolayer treated with the enzyme): releases

B2: α2-macroglobulin (protein, UniProt P01023 24-1474, looked up)
Alpha-2-macroglobulin: SVSGKPQYMVLVPSLLHTETTEKGCVLLSYLNETVTVSASLESVRGNRSLFTDLEAENDVLHCVAFAVPKSSSNEEVMFLTVQVKGPTQEFKKRTTVMVKNEDSLVFVQTDKSIYKPGQTVKFRVVSMDENFHPLNELIPLVYIQDPKGNRIAQWQSFQLEGGLKQFSFPLSSEPFQGSYKVVVQKKSGGRTEHPFTVEEFVLPKFEVQVTVPKIITILEEEMNVSVCGLYTYGKPVPGHVTVSICRKYSDASDCHGEDSQAFCEKFSGQLNSHGCFYQQVKTKVFQLKRKEYEMKLHTEAQIQEEGTVVELTGRQSSEITRTITKLSFVKVDSHFRQGIPFFGQVRLVDGKGVPIPNKVIFIRGNEANYYSNATTDEHGLVQFSINTTNVMGTSLTVRVNYKDRSPCYGYQWVSEEHEEAHHTAYLVFSPSKSFVHLEPMSHELPCGHTQTVQAHYILNGGTLLGLKKLSFYYLIMAKGGIVRTGTHGLLVKQEDMKGHFSISIPVKSDIAPVARLLIYAVLPTGDVIGDSAKYDVENCLANKVDLSFSPSQSLPASHAHLRVTAAPQSVCALRAVDQSVLLMKPDAELSASSVYNLLPEKDLTGFPGPLNDQDNEDCINRHNVYINGITYTPVSSTNEKDMYSFLEDMGLKAFTNSKIRKPKMCPQLQQYEMHGPEGLRVGFYESDVMGRGHARLVHVEEPHTETVRKYFPETWIWDLVVVNSAGVAEVGVTVPDTITEWKAGAFCLSEDAGLGISSTASLRAFQPFFVELTMPYSVIRGEAFTLKATVLNYLPKCIRVSVQLEASPAFLAVPVEKEQAPHCICANGRQTVSWAVTPKSLGNVNFTVSAEALESQELCGTEVPSVPEHGRKDTVIKPLLVEPEGLEKETTFNSLLCPSGGEVSEELSLKLPPNVVEESARASVSVLGDILGSAMQNTQNLLQMPYGCGEQNMVLFAPNIYVLDYLNETQQLTPEIKSKAIGYLNTGYQRQLNYKHYDGSYSTFGERYGRNQGNTWLTAFVLKTFAQARAYIFIDEAHITQALIWLSQRQKDNGCFRSSGSLLNNAIKGGVEDEVTLSAYITIALLEIPLTVTHPVVRNALFCLESAWKTAQEGDHGSHVYTKALLAYAFALAGNQDKRKEVLKSLNEEAVKKDNSVHWERPQKPKAPVGHFYEPQAPSAEVEMTSYVLLAYLTAQPAPTSEDLTSATNIVKWITKQQNAQGGFSSTQDTVVALHALSKYGAATFTRTGKAAQVTIQSSGTFSSKFQVDNNNRLLLQQVSLPELPGEYSMKVTGEGCVYLQTSLKYNILPEKEEFPFALGVQTLPQTCDEPKAHTSFQISLSVSYTGSRSASNMAIVDVKMVSGFIPLKPTVKMLERSNHVSRTEVSSNHVLIYLDKVSNQTLSLFFTVLQDVPVRDLKPAIVKVYDYYETDEFAIAEYNAPCSKDLGNA
appearance of growth-promoting activity after wounding (BSC-1 cells [1]): prevented
